Format in all cases: cell-based
In experiment [1] the target is KDR (phospho-KDR, VEGF165-stimulated HUVEC cells) (Homo sapiens (Human), UniProt P35968). Kind of experiment: KDR autophosphorylation ELISA in HUVEC cells (Example G). The conditions noted are these: cellular activity. The method, then:
Human umbilical vein endothelial cells or HUVEC (Lonza #C2519A) were seeded at 2×10^4 cells/well onto 96-well plates (Corning #3904), in EGM-2 growth medium (Lonza #CC-3162) containing 1% Penicillin Streptomycin (Thermo Fisher #15140-122). HUVEC cells were incubated at 37° C., 5% CO2 for 24 h and then starved for 24 h in serum-free EBM-2 basal medium (Lonza #CC-3156) containing 1% Penicillin Streptomycin. Test compounds were serially diluted to produce an 8-point dose curve in fresh serum-free medium to a final concentration of 0.3% DMSO (vehicle) and added to the cells and incubated for 1 h. Cells were then stimulated with 100 ng/mL recombinant human VEGF165 (R&D Systems #293-VE-500) for 5 min, washed with cold PBS, and immediately lysed with […] of cold 1× lysis buffer [20 mM Tris, 137 mM sodium chloride, 2 mM EDTA, 10% glycerol, 1% NP-40 alternative, 1 mM activated sodium orthovanadate, 1 mM PefaBloc SC (Sigma-Aldrich #11429868001), protease/phosphatase inhibitor tablet (Thermo Fisher #A32959)]. Lysates were collected and 100 μL/well added into the human phospho-KDR DuoSet IC ELISA (R&D Systems #DYC1766-2). Assay was performed according to manufacturer's instructions and sample phospho-KDR concentrations were extrapolated using human phospho-KDR control (R&D Systems #841421) as a standard. Positive control wells (100% activity) contained VEGF165-stimulated, DMSO-treated cell lysates. Negative control wells (0% activity) contained non-stimulated cell lysates. IC50 values were calculated by nonlinear regression analysis using a 4-parameter logistic curve fit in ActivityBase XE (IDBS).
In general terms: ELISA stands for enzyme-linked immunosorbent assay.

Experiment [2] concerns the target Mer (phospho-Mer, MERTK-transfected 293A cells) (Homo sapiens (Human), UniProt Q12866). Kind of experiment: Mer autophosphorylation ELISA in transient transfected 293A cells (Example H). The conditions noted are these: cellular activity. As for the experimental part: 293A cells (Thermo Fisher #R70507) were seeded at 1.5×10^6 cells/well onto 100 mm dish (Greiner #664169), in DMEM (Thermo Fisher #11995-040) containing 10% FBS (Thermo Fisher #26140-079), 1% MEM NEAA (Thermo Fisher #11140-050), 1% GlutaMax (Thermo Fisher #35050-061), and 1% Penicillin Streptomycin (Thermo Fisher #15140-122). 293A cells were incubated at 37° C., 5% CO2 for 24 h and then transfected with […] MERTK DNA (Genecopoeia #EX-Z8208-M02) using TransIT LT1 transfection reagent (Mirus-Bio #MIR2305). After 24 h incubation, the transfected 293A cells were seeded at 1×10^5 cells/well onto 96-well plates (Corning #3904) in DMEM growth medium overnight. Test compounds were serially diluted to produce an 8-point dose curve in fresh serum-free medium to a final concentration of 0.3% DMSO (vehicle) and added to the cells and incubated for 1 h. Cells were then immediately lysed with 150 μL of cold 1× lysis buffer [20 mM Tris, 137 mM sodium chloride, 2 mM EDTA, 10% glycerol, 1% NP-40 alternative, 1 mM activated sodium orthovanadate, 1 mM PefaBloc SC (Sigma-Aldrich #11429868001), protease/phosphatase inhibitor tablet (Thermo Fisher #A32959)]. Lysates were clarified by centrifugation and 50 µL/well added in to the human phospho-Mer DuoSet IC ELISA (R&D Systems #DYC2579-2). Assay was performed according to manufacturer's instructions and sample phospho-Mer concentrations were extrapolated using human phospho-Mer control (R&D Systems #841793) as a standard. Positive control wells (100% activity) contained DMSO-treated cell lysates. Negative control wells (0% activity) contained reference inhibitor-treated cell lysates. IC50 values were calculated by nonlinear regression analysis using a 4-parameter logistic curve fit in ActivityBase XE (JDBS).

The target of experiment [3] is Met (phospho-Met, HGF-stimulated PC-3 prostate cancer cells) (Homo sapiens (Human), UniProt P08581). The experiment can be described thus: Met autophosphorylation ELISA in PC-3 cells (Example F). The conditions noted are these: cellular activity, read-out: c-Met IC50. The method, then:
PC-3 prostate cancer cells (ATCC #CRL-1435) were seeded at 4×10^4 cells/well onto 24-well plates (Greiner #662165), in DMEM (Thermo Fisher #11995-040) containing 10% FBS (Thermo Fisher #26140-079), 1% MEM NEAA (Thermo Fisher #11140-050), 1% GlutaMax (Thermo Fisher #35050-061), and 1% Penicillin Streptomycin (Thermo Fisher #15140-122). PC-3 cells were incubated at 37° C., 5% CO2 for 24 h and then starved for 3 h in serum-free medium. Test compounds were serially diluted to produce an 8-point dose curve in fresh serum-free medium to a final concentration of 0.3% DMSO (vehicle) and added to the cells and incubated for 1 h. Cells were then stimulated with 100 ng/mL recombinant human HGF (R&D Systems #294-HG-250) for 10 min, washed with cold PBS, and immediately lysed with […] of cold 1× lysis buffer [20 mM Tris, 137 mM sodium chloride, 2 mM EDTA, 10% glycerol, 1% NP-40 alternative, 1 mM activated sodium orthovanadate, 1 mM PefaBloc SC (Sigma-Aldrich #11429868001), protease/phosphatase inhibitor tablet (Thermo Fisher #A32959)]. Lysates were clarified by centrifugation and 100 μL/well added into the PathScan phospho-Met (panTyr) Sandwich ELISA (Cell Signaling Technology #7333). Assay was performed according to manufacturer's instructions. Positive control wells (100% activity) contained HGF-stimulated, DMSO-treated cell lysates. Negative control wells (0% activity) contained HGF-stimulated, reference inhibitor-treated cell lysates. IC50 values were calculated by nonlinear regression analysis using a 4-parameter logistic curve fit in ActivityBase XE (IDBS).

[4] abbreviates: KDR autophosphorylation ELISA in HUVEC cells.
Setting [5] is: Mer autophosphorylation ELISA in transient transfected 293A cells.
[6] abbreviates: Met autophosphorylation ELISA in PC-3 cells.

Read-outs that look alike come from different tables or passages of the source. Some results are limits rather than exact numbers.

From patent US12371428B2 (Exelixis, Inc., priority 2019, dated 2025) come the findings set out here.

Sequence of Met (phospho-Met, HGF-stimulated PC-3 prostate cancer cells) (P08581 25-1390): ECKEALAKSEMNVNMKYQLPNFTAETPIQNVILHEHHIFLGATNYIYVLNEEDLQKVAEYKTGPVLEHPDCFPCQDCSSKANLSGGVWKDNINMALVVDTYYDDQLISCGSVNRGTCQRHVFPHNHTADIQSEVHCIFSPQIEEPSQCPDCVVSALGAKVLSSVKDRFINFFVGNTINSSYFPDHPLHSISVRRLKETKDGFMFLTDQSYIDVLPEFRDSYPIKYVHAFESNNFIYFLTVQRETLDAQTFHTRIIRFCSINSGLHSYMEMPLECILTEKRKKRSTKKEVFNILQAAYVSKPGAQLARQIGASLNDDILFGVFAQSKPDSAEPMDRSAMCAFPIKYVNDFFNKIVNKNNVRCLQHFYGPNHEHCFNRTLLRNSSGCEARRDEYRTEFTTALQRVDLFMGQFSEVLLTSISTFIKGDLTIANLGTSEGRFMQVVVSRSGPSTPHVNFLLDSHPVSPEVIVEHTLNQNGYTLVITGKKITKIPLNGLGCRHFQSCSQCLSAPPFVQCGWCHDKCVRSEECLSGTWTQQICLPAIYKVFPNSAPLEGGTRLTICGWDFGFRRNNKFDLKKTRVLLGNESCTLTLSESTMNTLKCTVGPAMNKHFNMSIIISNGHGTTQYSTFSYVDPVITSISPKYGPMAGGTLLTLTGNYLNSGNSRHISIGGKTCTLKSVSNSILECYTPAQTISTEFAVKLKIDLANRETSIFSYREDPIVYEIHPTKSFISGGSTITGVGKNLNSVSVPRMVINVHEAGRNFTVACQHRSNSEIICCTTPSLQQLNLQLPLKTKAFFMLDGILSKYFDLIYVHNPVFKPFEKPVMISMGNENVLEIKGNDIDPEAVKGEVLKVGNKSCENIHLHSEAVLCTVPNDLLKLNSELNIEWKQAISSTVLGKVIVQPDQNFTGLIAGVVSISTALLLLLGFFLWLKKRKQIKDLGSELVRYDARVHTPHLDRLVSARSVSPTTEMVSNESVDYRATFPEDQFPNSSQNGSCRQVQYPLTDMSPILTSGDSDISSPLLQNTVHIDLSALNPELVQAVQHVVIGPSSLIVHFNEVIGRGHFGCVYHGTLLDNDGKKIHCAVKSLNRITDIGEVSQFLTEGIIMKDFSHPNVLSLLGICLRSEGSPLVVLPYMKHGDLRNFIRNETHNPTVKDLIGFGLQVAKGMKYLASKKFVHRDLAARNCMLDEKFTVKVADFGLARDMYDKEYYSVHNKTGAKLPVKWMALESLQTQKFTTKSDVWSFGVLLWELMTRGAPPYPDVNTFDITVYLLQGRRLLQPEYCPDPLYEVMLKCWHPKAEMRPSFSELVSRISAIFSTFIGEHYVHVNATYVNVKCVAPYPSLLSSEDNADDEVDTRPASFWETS
Sequence of KDR (phospho-KDR, VEGF165-stimulated HUVEC cells) (P35968 20-1356): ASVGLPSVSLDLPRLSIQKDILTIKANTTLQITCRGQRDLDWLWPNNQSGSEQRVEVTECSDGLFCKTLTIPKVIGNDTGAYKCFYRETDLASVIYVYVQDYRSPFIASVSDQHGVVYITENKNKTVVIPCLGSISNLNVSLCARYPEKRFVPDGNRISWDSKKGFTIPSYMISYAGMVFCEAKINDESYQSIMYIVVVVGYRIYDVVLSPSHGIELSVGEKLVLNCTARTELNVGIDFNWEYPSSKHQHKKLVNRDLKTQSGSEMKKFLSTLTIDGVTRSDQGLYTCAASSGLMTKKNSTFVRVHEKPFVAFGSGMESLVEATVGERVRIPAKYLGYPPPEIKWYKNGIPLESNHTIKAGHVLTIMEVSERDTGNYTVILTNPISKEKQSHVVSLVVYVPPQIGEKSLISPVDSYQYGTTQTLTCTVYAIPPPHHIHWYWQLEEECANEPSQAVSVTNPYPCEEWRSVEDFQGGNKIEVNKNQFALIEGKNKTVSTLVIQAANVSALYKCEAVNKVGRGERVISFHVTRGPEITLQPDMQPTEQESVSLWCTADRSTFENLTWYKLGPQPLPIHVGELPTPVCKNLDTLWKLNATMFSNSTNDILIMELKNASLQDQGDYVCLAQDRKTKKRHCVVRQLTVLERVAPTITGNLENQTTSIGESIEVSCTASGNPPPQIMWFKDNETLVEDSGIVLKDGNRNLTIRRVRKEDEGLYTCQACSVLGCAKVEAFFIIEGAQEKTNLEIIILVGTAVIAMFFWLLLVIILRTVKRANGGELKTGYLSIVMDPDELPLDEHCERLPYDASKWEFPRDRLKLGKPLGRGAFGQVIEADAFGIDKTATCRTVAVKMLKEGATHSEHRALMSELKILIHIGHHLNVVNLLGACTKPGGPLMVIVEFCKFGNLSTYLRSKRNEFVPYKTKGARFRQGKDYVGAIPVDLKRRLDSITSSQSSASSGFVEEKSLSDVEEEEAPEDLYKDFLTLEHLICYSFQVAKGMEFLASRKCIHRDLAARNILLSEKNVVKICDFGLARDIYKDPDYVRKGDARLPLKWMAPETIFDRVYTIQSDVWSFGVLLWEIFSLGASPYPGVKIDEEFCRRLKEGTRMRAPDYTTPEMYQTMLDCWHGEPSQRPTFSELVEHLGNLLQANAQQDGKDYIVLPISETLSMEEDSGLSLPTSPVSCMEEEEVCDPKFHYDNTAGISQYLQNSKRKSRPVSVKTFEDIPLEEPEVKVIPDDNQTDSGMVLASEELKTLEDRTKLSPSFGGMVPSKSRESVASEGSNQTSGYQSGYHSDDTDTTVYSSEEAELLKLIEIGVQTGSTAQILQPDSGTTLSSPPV
Sequence of Mer (phospho-Mer, MERTK-transfected 293A cells) (Q12866 21-999): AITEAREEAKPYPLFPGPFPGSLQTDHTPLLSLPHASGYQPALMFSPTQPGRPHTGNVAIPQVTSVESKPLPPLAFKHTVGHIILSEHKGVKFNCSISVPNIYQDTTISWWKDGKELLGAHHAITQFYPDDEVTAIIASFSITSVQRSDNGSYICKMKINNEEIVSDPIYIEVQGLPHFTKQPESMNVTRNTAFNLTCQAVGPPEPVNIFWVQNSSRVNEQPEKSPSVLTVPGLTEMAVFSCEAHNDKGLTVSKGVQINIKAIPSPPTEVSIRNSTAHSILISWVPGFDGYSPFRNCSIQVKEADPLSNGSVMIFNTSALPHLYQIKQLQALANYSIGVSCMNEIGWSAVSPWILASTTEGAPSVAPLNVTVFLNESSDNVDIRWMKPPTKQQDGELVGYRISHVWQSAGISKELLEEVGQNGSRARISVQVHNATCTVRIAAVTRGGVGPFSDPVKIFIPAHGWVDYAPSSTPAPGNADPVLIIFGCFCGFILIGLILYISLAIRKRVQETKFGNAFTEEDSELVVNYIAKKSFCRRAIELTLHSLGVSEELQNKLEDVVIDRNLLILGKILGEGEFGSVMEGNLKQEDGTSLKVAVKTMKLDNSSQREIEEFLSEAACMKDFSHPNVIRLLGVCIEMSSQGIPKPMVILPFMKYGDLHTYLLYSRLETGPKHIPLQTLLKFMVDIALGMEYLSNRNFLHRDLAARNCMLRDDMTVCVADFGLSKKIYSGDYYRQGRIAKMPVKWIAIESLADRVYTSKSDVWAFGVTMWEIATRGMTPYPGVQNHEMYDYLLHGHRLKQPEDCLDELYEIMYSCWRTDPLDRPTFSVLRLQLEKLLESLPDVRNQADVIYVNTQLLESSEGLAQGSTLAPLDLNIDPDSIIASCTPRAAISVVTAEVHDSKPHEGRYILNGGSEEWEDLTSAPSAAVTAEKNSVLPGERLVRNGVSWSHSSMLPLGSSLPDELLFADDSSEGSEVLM

As a reminder, the IC50 is the concentration that gives 50% inhibition. As to `COc1ccc(-c2c(C)nc(C)c(C(=O)Nc3ccc(Oc4ccnc5cc(OC)c(OC)nc45)c(F)c3)c2O)cc1C` [Compound 712, N-[4-[(6,7-dimethoxy-1,5-naphthyridin-4-yl)oxy]-3-fluorophenyl]-4-hydroxy-5-(4-methoxy-3-methylphenyl)-2,6-dimethylpyridine-3-carboxamide], the IC50 in experiment [1] (setting [4]), in experiment [2] (setting [5]) and in experiment [3] (setting [6]) was less than 100 nM each time.
For the molecule `COc1cc2nccc(Oc3ccc(NC(=O)c4c(C)n(CC(F)(F)F)cc(-c5ccc(F)cc5)c4=O)cc3)c2nc1OC` [Compound 789, N-[4-[(6,7-dimethoxy-1,5-naphthyridin-4-yl)oxy]phenyl]-5-(4-fluorophenyl)-2-methyl-4-oxo-1-(2,2,2-trifluoroethyl)pyridine-3-carboxamide], the IC50 is more than 300 nM in experiment [1] (setting [4]), less than 100 nM in experiment [2] (setting [5]) and less than 100 nM in experiment [3] (setting [6]).
In the case of `COc1cc(-c2c(C)nc(C)c(C(=O)Nc3ccc(Oc4ccnc5cc(OC)c(OC)nc45)c(F)c3)c2O)ccc1F` [Compound 709, N-[4-[(6,7-dimethoxy-1,5-naphthyridin-4-yl)oxy]-3-fluorophenyl]-5-(4-fluoro-3-methoxyphenyl)-4-hydroxy-2,6-dimethylpyridine-3-carboxamide], the IC50 in experiment [1] (setting [4]), in experiment [2] (setting [5]) and in experiment [3] (setting [6]) was less than 100 nM each time.
Regarding `COc1cc2nccc(Oc3ccc(NC(=O)c4c5n(c(C)c(-c6ccc(F)cc6)c4=O)CCOC5)cc3F)c2nc1OC` [Compound 775, N-[4-[(6,7-dimethoxy-1,5-naphthyridin-4-yl)oxy]-3-fluorophenyl]-7-(4-fluorophenyl)-6-methyl-8-oxo-3,4-dihydro-1H-pyrido[2,1-c][1,4]oxazine-9-carboxamide], the IC50 in experiment [1] (setting [4]), in experiment [2] (setting [5]) and in experiment [3] (setting [6]) was less than 100 nM in each case.
On to `COc1cc2nccc(Oc3ccc(NC(=O)c4cc(C(C)O)c(C)n(-c5ccc(F)cc5)c4=O)cc3F)c2nc1OC` (stereo not drawn) [Compound 787, N-[4-[(6,7-dimethoxy-1,5-naphthyridin-4-yl)oxy]-3-fluorophenyl]-1-(4-fluorophenyl)-5-(1-hydroxyethyl)-6-methyl-2-oxopyridine-3-carboxamide], for which the values for the IC50 in experiment [1] (setting [4]), in experiment [2] (setting [5]) and in experiment [3] (setting [6]) were more than 300 nM, less than 100 nM and less than 100 nM, respectively.
As for `COc1cc2nccc(Oc3ccc(NC(=O)c4c(C)nc(C)c(-c5ccc(C(C)C)cc5)c4O)cc3F)c2nc1OC` [Compound 711, N-[4-[(6,7-dimethoxy-1,5-naphthyridin-4-yl)oxy]-3-fluorophenyl]-4-hydroxy-2,6-dimethyl-5-(4-propan-2-ylphenyl)pyridine-3-carboxamide], the IC50 in experiment [1] (setting [4]), in experiment [2] (setting [5]) and in experiment [3] (setting [6]) was less than 100 nM throughout.
On to `COc1cnc2c(Oc3ccc(NC(=O)c4c(C)n(C)c(C)c(-c5ccc(F)cc5F)c4=O)cc3F)ccnc2c1` [Compound 824, 5-(2,4-difluorophenyl)-N-[3-fluoro-4-[(7-methoxy-1,5-naphthyridin-4-yl)oxy]phenyl]-1,2,6-trimethyl-4-oxopyridine-3-carboxamide], for which the IC50 was more than 300 nM in experiment [1] (HUVEC cells), less than 100 nM in experiment [2] (transfected 293A cells) and less than 100 nM in experiment [3] (PC-3 cells).
In the case of `COc1cc2nccc(Oc3ccc(NC(=O)c4c(C)n(CC(F)F)cc(-c5ccc(F)cc5)c4=O)cc3)c2nc1OC` [Compound 788, 1-(2,2-difluoroethyl)-N-[4-[(6,7-dimethoxy-1,5-naphthyridin-4-yl)oxy]phenyl]-5-(4-fluorophenyl)-2-methyl-4-oxopyridine-3-carboxamide], the IC50 was 100 to 300 nM in experiment [1] (setting [4]), less than 100 nM in experiment [2] (setting [5]) and less than 100 nM in experiment [3] (setting [6]).
Regarding `COc1cc2nccc(Oc3ccc(NC(=O)c4c(C)nnc(-c5ccc(F)cc5C)c4OC)cc3F)c2nc1OC` [Compound 773, N-[4-[(6,7-dimethoxy-1,5-naphthyridin-4-yl)oxy]-3-fluorophenyl]-6-(4-fluoro-2-methylphenyl)-5-methoxy-3-methylpyridazine-4-carboxamide], the half-inhibitory concentration (IC50) in experiment [1] (setting [4]), in experiment [2] (setting [5]) and in experiment [3] (setting [6]) was less than 100 nM throughout.
Regarding `COc1cc2nccc(Oc3ccc(NC(=O)c4cnc(C)c(-c5ccc(F)cc5)n4)cc3F)c2nc1OC` [Compound 764, N-[4-[(6,7-dimethoxy-1,5-naphthyridin-4-yl)oxy]-3-fluorophenyl]-6-(4-fluorophenyl)-5-methylpyrazine-2-carboxamide], the IC50 in experiment [1] (setting [4]) is more than 300 nM; in experiment [2] (setting [5]) it was less than 100 nM; in experiment [3] (setting [6]), less than 100 nM.
Regarding `CCOc1ccn(-c2ccc(F)cc2)c(=O)c1C(=O)Nc1ccc(Oc2ccnc3cc(OC)cnc23)c(F)c1` [Compound 716, 4-ethoxy-N-[3-fluoro-4-[(7-methoxy-1,5-naphthyridin-4-yl)oxy]phenyl]-1-(4-fluorophenyl)-2-oxopyridine-3-carboxamide], the IC50 in experiment [1] (setting [4]) is more than 300 nM; in experiment [2] (setting [5]), less than 100 nM; in experiment [3] (setting [6]), less than 100 nM.
On to `COc1cc2nccc(Oc3ccc(NC(=O)c4c(C)n(C(F)F)cc(-c5ccc(F)cc5)c4=O)cc3F)c2nc1OC` [Compound 729, 1-(difluoromethyl)-N-[4-[(6,7-dimethoxy-1,5-naphthyridin-4-yl)oxy]-3-fluorophenyl]-5-(4-fluorophenyl)-2-methyl-4-oxopyridine-3-carboxamide], for which the IC50 in experiment [1] (setting [4]), in experiment [2] (setting [5]) and in experiment [3] (setting [6]) was less than 100 nM in each case.
With `CCOc1ccn(-c2ccc(F)cc2)c(=O)c1C(=O)Nc1ccc(Oc2ccnc3cc(OC)cnc23)cc1` [Compound 717, 4-ethoxy-1-(4-fluorophenyl)-N-[4-[(7-methoxy-1,5-naphthyridin-4-yl)oxy]phenyl]-2-oxopyridine-3-carboxamide], the IC50 in experiment [1] (setting [4]) is more than 300 nM; in experiment [2] (setting [5]), less than 100 nM; in experiment [3] (setting [6]) it was less than 100 nM.
